Key:
P. leiognathi = experiment: ToxScreen-II toxicity assay (bacterial luminescence) with stored bacterial suspension; assay type: cell-based; settings: light level after 30 minutes at 27° C.
Procedure: In order to determine how long a bacterial suspension stored in a solution according to an exemplary embodiment of the invention could be useful in a toxicity assay, a toxicity assay (ToxScreen-II, CheckLight Ltd, Qiryat Tivon, Israel) was conducted repeatedly over time.
In the assay, 0.01 mL aliquots were drawn from the bacterial suspension (P. leiognathi) in the medium at 4 time points during 30 days and incubated with chemical toxicants in assay buffer diluted in mineral water. Light level was determined after 30 minutes at 27° C.

[1] = test system: luminescent bacteria (e.g. Photobacterium leiognathi, Vibrio fischeri, Vibrio harveyi); experiment: titration of medium components: luminescence during long term storage at refrigeration temperatures; assay type: cell-based; settings: for range I: concentrations that provided a marked improvement over negative control / range II: concentrations that produced no negative effect relative to negative control: based on results of examples 2 through 9; for effect of antibiotic on luminescence during long term storage: antibiotic at 15 mg/L in storage solution; for concentration that slowed the reduction in luminescence better than other tested concentrations: storage at -2 to +4° C. over several weeks, other components constant as in Table 1, pH 7.2
Procedure: In order to identify storage conditions suitable for a long term medium for a suspension of luminescent bacteria (e.g. Photobacterium leiognathi, Vibrio fischeri, Vibrio harveyi) different concentrations of monovalent salts, sugars, sources of divalent cations, protein mixtures, albumins and alcohols were tested.
Each of the medium components (including pH) was tested separately while all other components were kept at a constant concentration as indicated in Table 1. For titration of other components pH was held constant at 7.2. The effect on bacterial luminescence of each component at each tested concentration (or pH value) was determined over a period of several weeks.
In order to perform the titration of the medium components, a bacterial culture was spread on LA plates at about 300 colonies per plate after over night growth. Colonies were collected from plates with ASW and centrifuged (10000 g, 10 minutes, 4° C.). Harvested bacteria were resuspended in the different solutions to form experimental bacterial suspensions.
Experimental bacterial suspensions were stored at −2° C.-+4° C. Each week an aliquot of each experimental bacterial suspension was drawn and diluted in artificial seawater (ASW: 0.5M NaCl, 50 mM MgSO47H2O, 10 mM CaCl22H2O, 10 mM KCl)) supplemented with 50 ppm yeast extract/glucose and incubated at 26° C.-28° C. Light level was recorded after 30 minutes.

[2] = test system: E. coli harboring the luminescence system of V. fischeri; settings: titration as in Example 6; data not shown
Procedure: In order to determine the effect of monovalent salts on luminescence during long term storage at refrigeration temperatures, NaCl was added to medium at concentrations of 0.1, 0.5, 2.0, 3.0 and 4.5%. […] Assay of the effect of NaCl was as described in Example 1.

Row | Molecule | Sensitivity of P. leiognathi to various toxicants (P. leiognathi; Day 1 of storage) [mg/L] | Sensitivity of P. leiognathi to various toxicants (P. leiognathi; Day 7 of storage) [mg/L] | Sensitivity of P. leiognathi to various toxicants (P. leiognathi; Day 18 of storage) [mg/L] | Sensitivity of P. leiognathi to various toxicants (P. leiognathi; Day 30 of storage) [mg/L] | range I: concentrations that provided a marked improvement over negative control [1] | range II: concentrations that produced no negative effect relative to negative control [1] | other results
1 | [Cl][Cd][Cl] [CdCl2] | 0.2 | 0.25 | 0.3 | 0.4 |  |  | 
2 | Clc1ccc(C(c2ccc(Cl)cc2)C(Cl)(Cl)Cl)cc1 [DDT] | 0.007 | 0.006 | 0.004 | 0.006 |  |  | 
3 | [K+].[K+].[O]=[Cr](=[O])([O-])[O][Cr](=[O])(=[O])[O-] [K2Cr2O7] | 0.5 | 0.7 | 0.5 | 0.6 |  |  | 
4 | [Cl-].[Na+] [NaCl] |  |  |  |  | 2.0-3.0% | 1.0-3.0% | salt concentration determined to be useful (preserving luminescence) [2]: 0.8-0.85%
5 | [Cl][Pb][Cl] [PbCl2] | 2 | 2.5 | 3 | 2.5 |  |  | 
6 | CC1(C)S[C@@H]2[C@H](NC(=O)[C@H](N)c3ccccc3)C(=O)N2[C@H]1C(=O)O [ampicillin] |  |  |  |  |  |  | effect of antibiotic on luminescence during long term storage [1]: slowed the reduction in luminescence better than other tested antibiotics
7 | O=C(N[C@H](CO)[C@H](O)c1ccc([N+](=O)[O-])cc1)C(Cl)Cl [chloramphenicol] |  |  |  |  |  |  | effect of antibiotic on luminescence during long term storage [1]: slowed the reduction in luminescence better than other tested antibiotics
8 | CCO [ethanol] |  |  |  |  | 1.0-3.5% | 0.1-3.5% | concentration that slowed the reduction in luminescence better than other tested concentrations [1]: ≥ 1.5%
9 | O[C@H]1[C@H](O)[C@@H](O)[C@H](O)[C@@H](O)[C@H]1O [inositol] |  |  |  |  | 5.0-7.0% | 0.5-7.0% | concentration that slowed the reduction in luminescence better than other tested concentrations [1]: 5%
10 | [Cl-].[Cl-].[Mg+2] [magnesium, MgCl2] |  |  |  |  | 1.0 to 200 mM | 0.0 to 300 mM | concentration that slowed the reduction in luminescence better than other tested concentrations [1]: 200 mM
11 | Bovine serum albumin [BSA] |  |  |  |  |  | 0.02-1.0% | 

— US20100190237A1, “COMPOSITIONS AND METHODS FOR STORAGE OF BACTERIAL SUSPENSIONS” (priority 2007, published 2010)
